Source: US6911470B1, “Polyoxometalate compounds as antiviral agents” (priority 1988, dated 2005)
Read-outs that look alike come from different tables or passages of the source.

Key:
HIV-1 (strain LAV-1) = experiment: microbe, parasite or virus in culture; format: cell-based
Experimental: Cells. Human peripheral blood mononuclear cells (PBMC) from healthy HIV-1 seronegative and hepatitis B virus seronegative donors were isolated by Ficoll-Hypaque discontinuous gradient centrifugation at 1,000×g for 30 minutes, washed twice in phosphate-buffered saline (pH 7.2; PBS), and pelleted at 300×g for 10 minutes. Before infection, the cells were stimulated by phytohemagglutinin (PHA) at a concentration of 6 μg/ml for three days in RPMI 1640 medium supplemented with 15% heat-inactivated fetal calf serum, 1.5 mM L-glutamine, penicillin (100 U/ml), streptomycin (100 μg/ml), and 4mM sodium bicarbonate buffer.
Viruses. HIV-1 (strain LAV-1) was obtained from Dr. P. Feorino (Centers for Disease Control, Atlanta, Ga.). The virus was propagated in human PBMC using RPMI 1640 medium, as described previously (McDougal et al, J. Immun. Meth. 76, 171-183, 1985) without PHA and supplemented with 7% v/v interleukin-2 (Advanced Biotechnologies, Silver Spring, Md.), 7 μg/ml DEAE-dextran (Pharmacia, Uppsala, Sweden), and 370 U/ml anti-human leucocyte (alpha) interferon (ICN, Lisle, Ill.). Virus obtained from cell-free culture supernatant was titrated and stored in aliquots at −80° C. until use.
Inhibition of virus replication in human PBMC. Uninfected PHA-stimulated human PBMC were uniformly distributed among 25 cm^2 flasks to give a 5 ml suspension containing about 2×10^6 cells/ml. Suitable dilutions of virus were added to infect the cultures. The mean reverse transcriptase (RT) activity of the inocula was 50,000 decompositions per min/ml corresponding to about 100 TCID50, as determined by Groopman et al. (Groopman et al, AIDS Res. Human Retro. 3, 71-85, 1987. The drugs at twice their final concentrations in 5 ml of RPMI 1640 medium, supplemented as described above, were added to the cultures. Uninfected and untreated PBMC at equivalent cell densities were grown in parallel as controls. The cultures were maintained in a humidified 5% CO2-95% air incubator at 37° C. for six days after infection, at which point all cultures were sampled for supernatant reverse transcriptase (RT) activity.
RT activity assay. Six ml supernatant from each culture was clarified from cells at 300×g for 10 minutes. Virus particles were pelleted from 5 ml samples at 40,000 rpm for 30 minutes using a Beckman 70.1 Ti rotor and suspended in 200 μl of virus disrupting buffer (50 mM Tris-Cl, pH 7.8, 800 mM NaCl, 20% glycerol, 0.5 mM phenylmethyl sulfonyl fluoride, and 0.5% Triton X-100).
The RT assay was performed in 96-well microtiter plates, as described by Spira et al. (Spira et al, J. Clin. Microbiol. 22, 97-99, 1987). The reaction mixture, which contained 50 mM Tris-Cl pH 7.8, 9 mM MgCl2, 5 mM dithiothreitol (DTT), 4.7 μg/ml (rA)n. (dT)12-18, 140 μM dATP, and 0.22 μM [^3H]TTP, specific activity 78.0 Ci/mmol, equivalent to 17,300 cpm/pmol; NEN Research Products, Boston, Mass., was added to each well. The sample (20 μl) was added to the reaction mixture which was then incubated at 37° C. for 2 hours. The reaction was terminated by the addition of 100 μl 10% trichloroacetic acid (TCA) containing 0.45 mM sodium pyrophosphate. The acid-insoluble nucleic acids which precipitated were collected on glass filters using a Skatron semi-automatic harvester. The filters were washed with 5% TCA and 70% ethanol, dried, and placed in scintillation vials. Four ml of scintillation fluid (Econofluor, NEN Research Products, Boston, Mass.) were added and the amount of radioactivity in each sample was determined using a Packard Tri-Carb liquid scintillation analyzer (model 2,000CA). The results were expressed in dpm/ml of original clarified supernatant.
Median-effect method. Dose-effect relationships were analyzed by the median-effect equation (Chou et al, Adv. Enz. Regul. 22, 27-55, 1984).

human PBM cells = experiment: Cytotoxicity assay on uninfected PHA stimulated human PBMC (trypan blue); format: cell-based; details: Table 1; read-out: IC50 Toxicity in Human PBM Cells
Experimental: Cells. […] PBS), and pelleted at 300×g for 10 minutes. […] Cytotoxicity assay. The drugs were evaluated for their potential toxic effects on uninfected PHA stimulated human PBMC. Flasks were seeded so that the final cell concentration was 2×10^5 cells/ml. The cells were cultured with and without drug for 6 days, at which time aliquots were counted for cell viability, as assessed by the trypan blue dye-exclusion method using a hemacytometer. The median inhibitory concentration (IC50) was calculated using the median effect method (Chou et al, Elsevier-Biosoft, Elsevier Science Publishers, Cambridge, U.K., 1985; Chou et al, Adv. Enz. Regul. 22, 27-55, 1984). Median-effect method. Dose-effect relationships were analyzed by the median-effect equation (Chou et al, Adv. Enz. Regul. 22, 27-55, 1984). The slope (m) and median effective and inhibitory concentration (EC50 and IC50) values were obtained by using a computer program developed by Chou and Chou (Chou et al, Elsevier-Biosoft, Elsevier Science Publishers, Cambridge, U.K., 1985).

[1] = Comparison of toxicity of polyoxometalate compounds in mice (mortality, haematology); format: in vivo; parameters: MCV (mean corpuscular volume): unit not given here; details: BID × 6, 60 mkd i.p.
From the text: Comparison of Toxicity of Polyoxometalate Compounds Mice.
In vivo antiviral experiments. […] Treatment was continued daily for 6 or 10 days.

[2] = tested on: human granulocyte-macrophage precursor cells; format: cell-based
From the text: Preparation of Cells. Human bone marrow cells were collected by aspiration from the posterior iliac crest of normal healthy volunteers, treated with heparin and the mononuclear population separated by Ficoll-Hypaque gradient centrifugation. Cells were washed twice in Hanks balanced salt solution, counted with a hemacytometer and their viability was >98% as assessed by trypan blue exclusion.
Assay of Colony-Forming Unit Granulocyte-Macrophage (CFU-GM) for Drug Cytotoxicity. The culture assay for CFU-GM was performed using a bilayer soft-agar method as recently described (Sommadossi et al, Antimicrob. Agents Chemother. 31, 452-454, 1987). McCoy 5A nutrient medium supplemented with 15% dialyzed fetal bovine serum (heat inactivated at 56° C. for 30 min.) (Gibco Laboratories, Grand Island, N.Y.) was used in all experiments. This medium was completely lacking in thymidine and uridine. Cells were cloned in 0.3% agar in the presence of increasing concentrations of the modulating compound or in medium alone (control). After 14 days of incubation at 37° C. in a humidified atmosphere of 5% CO2 in air, colonies (≧50 cells) were counted using an inverted microscope.
The toxicities of a variety of polyoxometalates with respect to human bone marrow cells (human granulocyte-macrophage precursor cells) were assessed.

[3] = reason it must be taken intravenously; cited from earlier work
human bone marrow cells = details: background statement; cited from earlier work
[4] = background statement; AZT in a clinical setting; cited from earlier work
[5] = target: T1, HIV-1 reverse transcriptase (Human immunodeficiency virus type 1 group M subtype B, UniProt P04585); experiment: Evaluation of compounds on purified retroviral RT (cell-free, virion-derived); format: biochemical; details: Table 2; read-out: EC-50 Cell-Free RT (virion-derived)
T1 construct: HIV-1 RT was isolated from detergent disrupted virions; made in house; host or cells: virions pelleted from culture fluid of HIV-1-infected PHA-stimulated human PBMC; DEAE-cellulose and phosphocellulose chromatography
Experimental: Evaluation of compounds on purified retroviral RT. HIV-1 RT was isolated from detergent disrupted virions obtained from the cell-free supernatant of infected PHA-stimulated PBMC. The enzyme was purified by passing the extract through ion-exchange chromatography columns, as described previously (Eriksson et al, Antimicrob. Agents Chemother. 31, 600-604, 1977. Briefly, 750 ml of culture fluid harvested from HIV-1-infected PBMC were ultracentrifuged to pellet the virus. The pellet was dissolved in buffer A [50 mM Tris-HCl, pH 7.9/0.25% Nonidet P-40/5 mM dithiothreitol/20% (vol/vol) glycerol] containing 1 mM EDTA, and freeze-thawed four times. After clarification by centrifugation, the enzyme was partially purified from the supernatant by passing the extract through a DEAE-cellulose column (Whatman DE-52; 2.6×15 cm) previously equilibrated with buffer B (50 mM Tris-Cl, pH 7.9, 50 mM KCl, 1 mM EDTA, 1 mM dithiothreitol, 20% glycerol). Elution was performed using a linear gradient 50-500 mM KCl in buffer B. Fractions containing enzyme activity were dialyzed against buffer B and were further purified on a phosphocellulose column (Whatman P-11) using a linear KCl (50-500 mM) gradient in buffer B. The peak fractions were pooled and dialyzed against buffer B. The enzyme was characterized as HIV-1 reverse transcriptase based on its cation, salt, pH, and template requirements according to previous descriptions (Eriksson et al, Antimicrob. Agents Chemother. 31, 600-604, 1977). The standard reaction mixture was used to evaluate the inhibitory effect of the drugs, as previously described (Eriksson et al, Antimicrob. Agents Chemother. 31, 600-604, 1977). Briefly, the reaction mixtures (final volume 100 μl) contained 100 mM Tris-HCl, pH 8.0, 50 mM KCl, 2 mM MgCl2, 5 mM DTT, 400 ug/ml bovine serum albumin, 3 μg/ml (rA)·(dT)12-18 and 1 μM of [^3H]TTP (specific activity 82.3 Ci/mmol). The reactions were started by the addition of 10 μl of partially purified RT, incubated at 37° C. for 60 min., and processed as previously described (Eriksson et al, Antimicrob. Agents Chemother. 31, 600-604, 1977).
Median-effect method. Dose-effect relationships were analyzed by the median-effect equation (Chou et al, Adv. Enz. Regul. 22, 27-55, 1984). The slope (m) and median effective and inhibitory concentration (EC50 and IC50) values were obtained by using a computer program developed by Chou and Chou (Chou et al, Elsevier-Biosoft, Elsevier Science Publishers, Cambridge, U.K., 1985).

[6] = tested on: Mouse Ecotropic, CNS (CAS-Br-M); experiment: UV/XC assay for murine retroviruses in SC-1 cells; format: cell-based, murine retrovirus; details: Table 2; read-out: EC-50 Mouse Ecotropic, CNS (CAS-Br-M)
Experimental: UV/XC Assay for Murine Retroviruses Cells. Mouse embryo fibroblasts (SC-1) and XC cells were obtained from the American Type Culture Collection, Rockville, Md. […] The cells were maintained in Eagle's minimum essential medium with Hanks balanced salt solution, supplemented with penicillin (100 U/ml), streptomycin (100 μg/ml), sodium bicarbonate (24 mM), Hepes (25 mM), and either 2 (maintenance) or 10 (growth) percent inactivated newborn or fetal calf serum.
Virus quantitation by UV-XC assay. The XC test (Rowe et al, Virology 42, 1136-1139, 1970) is a plaque-type of assay which tests for the presence and titer of B- and N-tropic murine leukemia viruses. Because these viruses produce no overt signs of infection of SC-1 mouse cells, it is necessary to overlay the virus producing culture with an indicator cell line, XC. The number of syncytia that are produced is a direct measure of the virus titer in FFU.
Six-well plates were seeded with 1×10^5 SC-1 mouse cells on the first day. On the following day the medium was removed and the inoculum (0.2 ml) was added in medium containing polybrene (4 μg/ml). For determining the antiviral activity of the compounds in culture, the virus dilution selected produced in untreated cultures about 80 foci per well. […] Control cells without virus but receiving the drug provided an estimate of the drug's toxic effects as quantitated by using trypan blue staining.

[7] = Table 2, several values per cell, some in brackets, read-out: EC-50 HIV-1 (LAV-1)

(NH4)17Na[NaSbgW21O86] [Formula 1, reference compound]
EC50 (HIV-1 (strain LAV-1); Table 1, read-out: EC50 Anti-HIV-1 Activity in Human PBM Cells): 390 nM
EC50 (HIV-1 (strain LAV-1); [7]): 290 nM
IC50 (human PBM cells): 35000 nM
Hct (hematocrit) ([1]; bled on day 17): 14.82 ± 4.44%
Hgb (hemaglobin) ([1]; bled on day 17): 5.5 ± 1.43 g/dL
MCH ([1]; bled on day 17): 17.64 ± 2.07 pg
MCHC (mean corpuscular hemoglobin concentration) ([1]; bled on day 17): 37.66 ± 4.32 g/dL
MCV (mean corpuscular volume) ([1]; bled on day 17): 46.86 ± 0.4
PLT (platelates) (×1000) ([1]; bled on day 17): 226.4 ×1000
RBC (×1000000) ([1]; bled on day 17): 3.16 ± 0.95 ×1000000
RDW (width of red cells) ([1]; bled on day 17): 35.6 ± 2.12%
WBC (×1000) ([1]; bled on day 17): 4.16 ± 1.45 ×1000
Mortality ([1]; dead/total): 0/5
toxicity to human bone marrow cells (order of toxicity, FIG. 6) [2]: most toxic
pH at which it degrades [3]: < 4
toxicity to human bone marrow cells (human bone marrow cells): high toxicity
adverse effect [4]: induces thrombocytopenia

K5BW12O40 [α-K5BT]
EC50 (HIV-1 (strain LAV-1); [7]): 360 nM
EC50 [5]: 2900 nM
EC50 [6]: 910 nM
